Consider 1 compound from publication PMC10485003, “Antibiotic hyper-resistance in a class I aminoacyl-tRNA synthetase with altered active site signature motif” (Nature Communications, 2023).

What all share (assay): Activation step kinetics of reciprocal-residue mutants, mupirocin inhibition
What all share (format): biochemical, Priestia (Bacillus) megaterium
Conditions in all cases: peer review response Table 1, read-out: Ki (Mup)

One test addresses T1, P53A/G60N/R61K PmIleRS2 (Priestia megaterium, UniProt A0A0B6AVD3, G60N/P53A/R61K).
T1 sequence (A0A0B6AVD3 1-1032 P53A/G60N/R61K): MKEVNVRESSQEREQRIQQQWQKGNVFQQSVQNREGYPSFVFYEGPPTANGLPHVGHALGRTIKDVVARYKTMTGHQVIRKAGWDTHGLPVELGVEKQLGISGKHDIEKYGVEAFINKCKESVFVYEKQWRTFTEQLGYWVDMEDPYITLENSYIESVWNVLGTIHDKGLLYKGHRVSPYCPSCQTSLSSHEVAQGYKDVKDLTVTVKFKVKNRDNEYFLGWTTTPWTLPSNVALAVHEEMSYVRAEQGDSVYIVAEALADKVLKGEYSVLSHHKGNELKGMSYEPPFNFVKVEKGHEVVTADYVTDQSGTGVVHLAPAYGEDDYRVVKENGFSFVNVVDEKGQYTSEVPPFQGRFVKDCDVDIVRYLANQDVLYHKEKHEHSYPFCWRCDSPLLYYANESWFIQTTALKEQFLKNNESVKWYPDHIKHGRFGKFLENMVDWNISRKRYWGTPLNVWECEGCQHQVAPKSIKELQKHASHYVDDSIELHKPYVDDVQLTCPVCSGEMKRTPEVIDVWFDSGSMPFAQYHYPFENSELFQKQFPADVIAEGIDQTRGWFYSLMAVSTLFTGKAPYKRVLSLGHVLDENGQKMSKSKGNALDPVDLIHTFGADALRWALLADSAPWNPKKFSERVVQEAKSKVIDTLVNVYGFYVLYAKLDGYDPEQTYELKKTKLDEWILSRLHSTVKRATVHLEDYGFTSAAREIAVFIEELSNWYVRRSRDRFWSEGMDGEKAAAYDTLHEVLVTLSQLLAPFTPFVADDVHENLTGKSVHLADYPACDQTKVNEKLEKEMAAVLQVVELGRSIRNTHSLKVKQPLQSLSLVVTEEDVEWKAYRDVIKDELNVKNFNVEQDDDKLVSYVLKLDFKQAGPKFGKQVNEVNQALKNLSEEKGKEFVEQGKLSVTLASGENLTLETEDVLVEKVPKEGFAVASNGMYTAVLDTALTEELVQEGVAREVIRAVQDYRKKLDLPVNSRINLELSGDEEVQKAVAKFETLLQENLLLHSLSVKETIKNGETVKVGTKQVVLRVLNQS
Here is the method: (§1) L-Ile and ATP concentrations ranged from 1/10 KM to 10 KM values. When measuring the KI towards one of the substrates, the other was held in saturation (concentrations at least 10 KM). The aliquots of the reaction mixture (1–2.5 μl) were quenched in 2 volumes of 500 mM NaOAc pH = 4.5, 0.1% SDS, and formed ^32P-ATP was separated from the remaining ^32P-PPi by thin-layer chromatography on Polygram CEL 300 PEI UV254 TLC plates (Macherey-Nagel, cat: 801063) using 750 mM KH2PO4 pH=3.5, 4 M urea buffer. Visualization and quantification of the signals was performed using a Typhoon Phosphoimager 5 (General Electric) and accompanying ImageQuant™ TL software (SV: 10.2). The kinetic constants were determined using a global fit option of the competitive inhibition model of GraphPad Prism 6 software (SV: 6.01). All experiments were performed in triplicates. The kcat was determined by dividing the maximal velocity, VM, with the used enzyme concentration. […]
(§2) same catalytic mechanisms. Further, mutation of the natural ALHH motif of DrIleRS2 to ALGH led to the loss of activity, showing that IleRS2 enzymes also require the 1st/3rd His for the activity (i.e. implying the same reaction mechanisms).
(§3) To address this point, we changed the sentence “This allows accommodation of the 3rd His in mut-GVHH-PmIleRS2 in a productive manner without a clash with the adenine […]
(§4) This allows accommodation of the 3 rd His in mut-GVHH-PmIleRS2 without displacement of the adenine moiety. This way, the 3rd His can take over the role of the 1 st His in the canonical reaction mechanism (Fig. 4B). (Page 9, lines 216-218)
(§5) We agree with the reviewer that the active sites of IleRS1 and IleRS2 differ in structural features allowing rearrangement of the α1-helix solely in IleRS2. We were eager t o understand the basis of it and mutated several conserved positions, within and around helix 1, in IleRS1 by introducing the analogous residues found in IleRS2. The same was done for IleRS2. […]
(§6) Table 1. Catalytic activity of the IleRS1 and IleRS2 mutants with exchanged reciprocal residues measured in the activation step […]

Test [1] addresses T2, P53A/G60N/R61K/W130Q/Y126S PmIleRS2 (Priestia megaterium, UniProt A0A0B6AVD3, G60N/P53A/R61K/W130Q/Y126S).
T2 sequence (A0A0B6AVD3 1-1032 P53A/G60N/R61K/Y126S/W130Q): T1 sequence (A0A0B6AVD3 1-1032 P53A/G60N/R61K)
On the procedure: as §1, §2, §3, §4, §5, §6

A further test concerns the target T3, W130Q/Y126S PmIleRS2 (Priestia megaterium, UniProt A0A0B6AVD3, W130Q/Y126S).
T3 sequence (A0A0B6AVD3 1-1032 Y126S/W130Q): T1 sequence (A0A0B6AVD3 1-1032 P53A/G60N/R61K)
Here is the method:
as §1, §2, §3, §4, §5, §6

Broadly, the Ki is a dissociation constant, usually derived from enzyme kinetics or from competition with a known ligand.

`C/C(=C\C(=O)OCCCCCCCCC(=O)O)C[C@@H]1OC[C@H](C[C@@H]2O[C@H]2[C@@H](C)[C@H](C)O)[C@@H](O)[C@H]1O` [mupirocin]: the Ki on P53A/G60N/R61K PmIleRS2 amounted to 3.1 ± 0.2 µM; in test [1] it was 21.1 ± 0.7 µM; on W130Q/Y126S PmIleRS2, 3.2 ± 0.1 µM.
